Data as given in patent publication US20060204562A1, “Microprojection arrays with improved biocompatibility” (priority 2005, published 2006).

Experiments:
Assay type in all cases: in vivo, hairless guinea pig
[1] = urinary excretion of intact RWJ-445167 following IV injection (LC-MS); settings: following IV injection of 0.5 to 3 mg RWJ-445167
[2] = transdermal drug absorption from gel formulation with microprojection systems, extrapolated from urinary excretion
Description: (§1) Pretreatment and integrated systems described In U.S. application Ser. Nos. 10/971,430 and 10/970,901 were employed for the following analysis. The microprojection designs with retention features (i.e., 30a-30c) were used with the integrated system while the microprojection designs without retention features (i.e., 30d-30g) were used with the pretreatment system.
(§2) Following application of the systems, the gel formulation was left in contact with the skin for up to 24 h.

[3] = skin site irritation and bleeding after 24 h system wearing (erythema+edema score, photographs)
Description: as §1, §2
Referring now to FIG. 4, there is shown a series of photographs of the skin site following 24 h system wearing time.
An additional experiment using the pretreatment system was performed to compare microprojections lengths of 120 and 145 μm.
Referring now to FIG. 6, there is shown a graph illustrating the combined erythema+edema score obtained with the various microprojection designs. […] The results thus confirm that lower irritation is observed with shorter microprojections. Further, the skin site was not distinguishable from control sites (24 h wearing with the same formulation, no microprojection treatment).

## Cc1cccc(S(=O)(=O)Nc2ccc(C)n(CC(=O)NCCON=C(N)N)c2=O)c1 [RWJ-445167]
[1]
  dose found excreted intact in urine: 7.5 % of the dose
[2]; 120 μm microprojection array pretreatment vs no microprojection treatment
  enhancement factor: at least 10000 fold
[2]; 120 μm microprojections (FIG. 8)
  duration of delivery: sustained delivery for 24 h
[2]; following pretreatment with a 120 μm microprojection array, 24 h wearing, 20 wt % gel formulation
  drug absorbed: about 2.5 mg
[2]; formulation applied to the skin for 24 h in the absence of treatment with a microprojection array, detection limit
  drug absorption: < 0.2 μg absorbed per 24 h
[3]; 120 μm microprojections (FIG. 6), 24 h wearing
  combined erythema+edema score (irritation): absence of irritation
[3]; pretreatment system, 120 μm microprojection length (FIG. 5)
  bleeding / erythema at skin site: no bleeding or erythema
[3]; pretreatment system, 145 μm microprojection length (FIG. 5)
  bleeding at skin site: some pinpoint bleeding
